In US8247380B2, “Alpha 1-acid glycoprotein, alpha 2-HS glycoprotein, alpha 1-antitrypsin, and fragments thereof induce apoptosis in cancer cell lines” (Ambryx Biotechnology, D.C., priority 1997, dated 2012):
No end group written: not given here.

Experiments:
[1] = test system: LNCaP (prostate cancer) cells; assay: Cell death (apoptosis) assay, LNCaP cells; assay type: cell-based, human; conditions: for apoptotic activity / membrane blebbing (in words): chemically synthesized peptide, three (3) hours of incubation
Method: […] The free Zinc Acetate and Barium Acetate were removed by repetitive concentration. Fetuin was tested in LNCaP and HL-60 cells. […] Fetuin (in 10 μl PBS) at concentration of 100 ng/ml was added 3-4 hours after the cells were seeded.

[2] = test system: CCD-18 Co (human normal colon fibroblast); assay: Apoptosis assay, CCD-18 Co cells; assay type: cell-based; conditions: various concentrations of SEQ ID NO: 1
Description: Zinc charged alpha 1-acid glycoprotein has no effect on CCD 18Co cells (human normal colon fibroblast).

[3] = test system: HT-29 (human colon adenocarcinoma); assay: Apoptosis assay, HT-29 cells; conditions: for apoptotic activity / morphology (in words): 5 μM, 4 hours
Method: Prostate cancer cell line LNCAP was routinely used for the isolation of Apogen P-1 and Apogen P-2, whereas leukemia cell line HL-60 was used for the isolation of Apogen L. The methods of assays were as follows: LNCAP or HL-60 (1,000 cells) was seeded in 10 microliters RPMI containing 15% or 20% Fetal bovine serum, penicillin and streptomycin at 37 degrees, 5% CO2 in Microtray plates (25 μl wells, Robbins Scientific Corp.). The tested sample (10 μl) was added 3-4 hours after cells were seeded. After incubation of the tested sample with cells for 15 hours, two microliters of Hoechst dye (0.03 ng/ml in PBS) was added. Two hours later, cells that were stained with Hoechst dye were examined under fluorescence microscope. […] The percentage of apoptotic cells was calculated by the following equation:
The DNA condensation, DNA fragmentation and peripheral crescents of the nuclei are characteristics of a cell under apoptosis.

cancer cell lines = assay: Apoptosis assay, cancer cells (cell line not given); assay type: cell-based
[4] = test system: tumor cell line P388D1 (leukemia); assay: Effect of fetal fetuin on leukemia-bearing mice; assay type: in vivo, DBA/2 female mice
Method: Forty DBA/2 female mice (17-20 grams; Simonsen Laboratories, Inc., Gilroy, Calif.) kept on a standard diet and water ad libitum were inoculated with tumor cell line P388D1 (ATCC cell line number CCL46). The mice were randomly segregated into groups of ten (10). Zinc-charged fetal fetuin (10 mg/ml) were intraperitoneally injected into group I at 0.002 ml/mouse, group II at 0.02 ml/mouse and group III at 0.2 ml/mouse. Group IV was the control group, which was injected with 0.5 ml of saline solution. The injections were continued for 10 days. Mortalities were recorded for 60 days. The results were expressed as the percentage increase in life span (ILS): […]

Hep G2 (Human hepatoma) = assay: Apoptosis assay, Hep G2 cells
[5] = test system: p3HR-1 (human Burkitt lymphoma); assay: Apoptosis assay, p3HR-1 cells; assay type: cell-based; conditions: peptide fragment: 6 hours
[6] = test system: Calu-1 (human lung carcinoma); assay: Apoptosis assay, Calu-1 cells; assay type: cell-based; conditions: peptide fragment: 6 hours
HL-60 (leukemia) cells = assay: Cell death (apoptosis) assay, HL-60 cells; assay type: cell-based, human; conditions: peptide fragment: 6 hours
Method: Fetuin purified from fetal bovine serum by the procedure described above was dissolved in phosphate buffer saline (PBS). The free Zinc Acetate and Barium Acetate were removed by repetitive concentration. Fetuin was tested in LNCaP and HL-60 cells. […] Fetuin (in 10 μl PBS) at concentration of 100 ng/ml was added 3-4 hours after the cells were seeded.

[7] = various concentrations of SEQ ID NO: 1

HTFSGVASVE [SEQ ID NO: 1, H-T-F-S-G-V-A-S-V-E]
apoptotic activity / membrane blebbing (in words) [1]: caused membrane “blebbing”
potency relative to fetuin prepared from other methods ([1]; estimate): several thousand times
potency relative to Supercharged Zinc Fetuin ([1]; estimate, see FIG. 13): eight to ten times
induction of apoptosis (in words) [1, 7]: induced apoptosis
induction of apoptosis (in words) [2]: without affecting
induced apoptosis ([3]; 0.4 μM, four (4) hours): 52%
cells induced to apoptosis (in words) ([3]; 0.4 μM, six (6) hours): almost all
induction of apoptosis (in words) [3, 7]: induced apoptosis

S-A-S-G-E-A-F-H (SASGEAFH; Polypeptide fragment from treatment of fetuin from bovine sera as described in the specification.) [SEQ ID NO: 2, chemically synthesized bovine fetuin fragment, amino acid no; 310-317]
apoptotic activity / membrane blebbing (in words) [1]: did not show any apoptotic activity

alpha 1-acid glycoprotein (without zinc): alpha 1-acid glycoprotein pre-incubated with EDTA without recharging with zinc [reference compound]
induction of apoptosis in cancer/tumor cell lines (in words) (cancer cell lines): failed to induce apoptosis
apoptotic activity / morphology (in words) [3]: no apoptotic activity was seen

alpha 1-acid glycoprotein purchased from Sigma, after zinc charging: commercial alpha 1-acid glycoprotein after zinc charging
induction of apoptosis in cancer/tumor cell lines (in words) (cancer cell lines): contained the same activity

alpha 1-antitrypsin (without zinc): alpha 1-antitrypsin pre-incubated with EDTA without recharging with zinc [reference compound]
induction of apoptosis in cancer/tumor cell lines (in words) (cancer cell lines): failed to induce apoptosis
apoptotic activity / morphology (in words) [3]: no apoptotic activity was seen

calcium charged alpha 1-acid glycoprotein: alpha 1-acid glycoprotein pre-incubated with EDTA and recharged with calcium [reference compound]
apoptotic activity / morphology (in words) [3]: no apoptotic activity was seen

calcium charged alpha 1-antitrypsin: alpha 1-antitrypsin pre-incubated with EDTA and recharged with calcium [reference compound]
apoptotic activity / morphology (in words) [3]: no apoptotic activity was seen

fetal fetuin: Zinc-charged fetal fetuin (10 mg/ml) injected intraperitoneally into mice
mice that survived more than 58 days ([4]; 100 mg/Kg intraperitoneally for 10 days, untreated 100% dead after 24 days): 80%
increased life span (ILS) ([4]; leukemia-bearing mice treated with fetal fetuin): 141%

B1: Fetuin purchased from Sigma: commercial fetuin prepared by ammonium sulfate precipitation and EDTA treatment (protein, UniProt P12763 19-359, looked up)
Alpha-2-HS-glycoprotein: IPLDPVAGYKEPACDDPDTEQAALAAVDYINKHLPRGYKHTLNQIDSVKVWPRRPTGEVYDIEIDTLETTCHVLDPTPLANCSVRQQTQHAVEGDCDIHVLKQDGQFSVLFTKCDSSPDSAEDVRKLCPDCPLLAPLNDSRVVHAVEVALATFNAESNGSYLQLVEISRAQFVPLPVSVSVEFAVAATDCIAKEVVDPTKCNLLAEKQYGFCKGSVIQKALGGEDVRVTCTLFQTQPVIPQPQPDGAEAEAPSAVPDAAGPTPSAAGPPVASVVVGPSVVAVPLPLHRAHYDLRHTFSGVASVESSSGEAFHVGKTPIVGQPSIPGGPVRLCPGRIRYFKI
concentration at which apoptosis inducing activity was observed ([1]; long incubation time (2 days)): > 250 µg/mL
concentration at which apoptosis was induced ([1]; long incubation time (2 days)): > 5 mM
induction of apoptosis in cancer/tumor cell lines (in words) (cancer cell lines): very low activity

B2: Fetuin-Ca: fetuin bound with calcium (protein, UniProt P12763 19-359, looked up)
Alpha-2-HS-glycoprotein: B1 Alpha-2-HS-glycoprotein
modifications: calcium bound
induction of apoptosis in cancer/tumor cell lines (in words) (cancer cell lines): inactive in inducing apoptosis

B3: supercharged zinc fetuin: Section 4A fetuin stripped of ions with EDTA and reloaded with 0.5 M Zinc Acetate (protein, UniProt P12763 19-359, looked up)
Alpha-2-HS-glycoprotein: B1 Alpha-2-HS-glycoprotein
modifications: zinc charged
notes: Section 4A fetuin stripped of ions with EDTA and reloaded with 0.5 M Zinc Acetate
enhancement of ability to induce apoptosis versus original fetuin bound with zinc (Section 4A) ([1]; from LD50 on LNCaP cells incubated for 6 hours): three to four times

B4: natural fetuin: natural fetuin whose carbohydrate moiety was removed by certain enzymes (protein, UniProt P12763 19-359, looked up)
Alpha-2-HS-glycoprotein: B1 Alpha-2-HS-glycoprotein
modifications: deglycosylated
notes: natural fetuin whose carbohydrate moiety was removed by certain enzymes
boost of apoptotic inducing activity when carbohydrate moiety removed by certain enzymes (cancer cell lines): 2-3 fold

B5: E. Coli-expressed fetuin: recombinant bovine fetuin expressed in E. Coli (protein, UniProt P12763 19-359, looked up)
Alpha-2-HS-glycoprotein: B1 Alpha-2-HS-glycoprotein
modifications: expressed in E. coli
apoptotic activity relative to supercharged zinc fetuin (Section 4F) (cancer cell lines): about 5 times

B6: alpha 2-HS glycoprotein (without zinc): alpha 2-HS glycoprotein pre-incubated with EDTA without recharging with zinc (protein, UniProt P02765 19-300; P02765 341-367, looked up)
Alpha-2-HS-glycoprotein chain … 1: APHGPGLIYRQPNCDDPETEEAALVAIDYINQNLPWGYKHTLNQIDEVKVWPQQPSGELFEIEIDTLETTCHVLDPTPVARCSVRQLKEHAVEGDCDFQLLKLDGKFSVVYAKCDSSPDSAEDVRKVCQDCPLLAPLNDTRVVHAAKAALAAFNAQNNGSNFQLEEISRAQLVPLPPSTYVEFTVSGTDCVAKEATEAAKCNLLAEKQYGFCKATLSEKLGGAEVAVTCMVFQTQPVSSQPQPEGANEAVPTPVVDPDAPPSPPLGAPGLPPAGSPPDSHVL
Alpha-2-HS-glycoprotein chain … 2: TVVQPSVGAAAGPVVPPCPGRIRHFKV
modifications: EDTA treated
notes: alpha 2-HS glycoprotein pre-incubated with EDTA without recharging with zinc
induction of apoptosis in cancer/tumor cell lines (in words) (cancer cell lines): fails to induce apoptosis
apoptotic activity / morphology (in words) [3]: no apoptotic activity was seen

B7: zinc charged alpha 2-HS glycoprotein: alpha 2-HS glycoprotein (Sigma), EDTA treated and charged with zinc acetate (protein, UniProt P02765 19-300; P02765 341-367, looked up)
Alpha-2-HS-glycoprotein chain … 1: B6 Alpha-2-HS-glycoprotein chain … 1
Alpha-2-HS-glycoprotein chain … 2: TVVQPSVGAAAGPVVPPCPGRIRHFKV
modifications: zinc charged
notes: alpha 2-HS glycoprotein (Sigma), EDTA treated and charged with zinc acetate
apoptotic activity, panel of cell lines (in words) (Hep G2 (Human hepatoma)): induced apoptosis
apoptotic activity, panel of cell lines (in words) [5]: induced apoptosis
apoptotic activity, panel of cell lines (in words) [1]: induced apoptosis
apoptotic activity, panel of cell lines (in words) [6]: induced apoptosis
apoptotic activity / morphology (in words) [3]: caused cell shrinkage and membrane blebbing
apoptotic activity, panel of cell lines (in words) ([3]; peptide fragment: 6 hours): induced apoptosis
apoptotic activity, panel of cell lines (in words) (HL-60 (leukemia) cells): induced apoptosis

B8: calcium charged alpha 2-HS glycoprotein: alpha 2-HS glycoprotein pre-incubated with EDTA and recharged with calcium (protein, UniProt P02765 19-300; P02765 341-367, looked up)
Alpha-2-HS-glycoprotein chain … 1: B6 Alpha-2-HS-glycoprotein chain … 1
Alpha-2-HS-glycoprotein chain … 2: TVVQPSVGAAAGPVVPPCPGRIRHFKV
modifications: calcium charged
apoptotic activity / morphology (in words) [3]: no apoptotic activity was seen
